From patent US20050260582A1, “Cell proliferation inhibitors comprising ets transcription factor or gene encoding the same” (priority 2001, published 2005) come the findings set out here.

One experiment concerns A549 cell. Put plainly: Cell morphology and F-actin staining. The class given is cell-based, human. How it is done:
In FIG. 4, A549 cell, MEF gene overexpressing […] cell and A549 cell treated with BB94 (10 μM) are shown respectively from the left side.
Moreover, it has been reported that metastasis from epithelium to mesenchyme is induced by lack of E-cadherin or activation of MMPs [Llorens et al., 1998], expression of MMPs and E-cadherin was next examined. The right side in FIG. 5 is a photograph in place of a drawing, showing results of analyzing an MMP-9 protein content of A549 cell and MEF gene overexpressing cell in a serum-free culture supernatant (conditioned media) by western blotting using anti-MMP-9 antibody, and the left side in FIG. 5 is a photograph in place of a drawing, showing results of gelatin-zymography of MMP-9. […] In order to examine the decrease in MMP-9 activity in MEF gene overexpressing cell, A549 cell was treated with BB94 as an MMP inhibitor. […] Generally, such a morphological change thereof indicates reduction of an invasion activity. Accordingly, for examining an invasive function of A549 cell and MEF gene overexpressing cell, matrigel invasion assay was performed. In an upper chamber of FIG. 6, 2.5×10^5 A549 cells (left side), MEF gene overexpressing cells (center) and A549 cells (right side) treated with BB94 were inoculated respectively, and the numbers of cells on the lower side which were passed through a 8-μm filter were counted. […]

The next experiment has as its system A549 cells. Briefly: Matrigel invasion assay. The class given is cell-based, human. Conditions: cells passed through 8-μm filter after 24 hours; BB94-treated A549 as comparison. The text has this:
Moreover, it has been reported that metastasis from epithelium to mesenchyme is induced by lack of E-cadherin or activation of MMPs [Llorens et al., 1998], expression of MMPs and E-cadherin was next examined. The right side in FIG. 5 is a photograph in place of a drawing, showing results of analyzing an MMP-9 protein content of A549 cell and MEF gene overexpressing cell in a serum-free culture supernatant (conditioned media) by western blotting using anti-MMP-9 antibody, and the left side in FIG. 5 is a photograph in place of a drawing, showing results of gelatin-zymography of MMP-9. […] In an upper chamber of FIG. 6, 2.5×10^5 A549 cells (left side), MEF gene overexpressing cells (center) and A549 cells (right side) treated with BB94 were inoculated respectively, and the numbers of cells on the lower side which were passed through a 8-μm filter were counted. […]
200 μl of each cell suspension prepared to a concentration of 1.0×10^6 cells/ml was added to an upper layer of a matrigel invasion chamber (BD Biocoat Matrigel) having 8-μm pores, and 700 μl of a serum-free culture solution was added thereto. After 24 hours, the cells invaded in the lower layer of the membrane filter were stained with hematoxylin, and the number of the cells was then counted under a microscope.

For a further experiment, the system named is MEF expression. Put plainly: MEF expression by RT-PCR. The class given is cell-based, human. The text has this:
Next, since methylcytosine is recognized with methylated DNA bound to protein MeCP2 interacting with HDAC [Ng et al, 1999], the present inventors examined the effect given by the combined use of 5-aza-2′-deoxycytidine (5-azacytidine) as a demethylation agent and tricostatin A as a histone deacylase inhibitor in MEF expression of A549 cell. The results are shown in photographs in place of drawings in FIG. 3. […] GAPDH is shown as a control. In FIG. 3, HEK293 cell, A549 cell and Caco-2 cell are shown from the left side in an upper panel, and A549 cell and Caco-2 cell from the left side in a lower panel. In FIG. 3, DMSO indicates dimethyl sulfoxide, 5-AC indicates 5-azacytidine and TSA indicates tricostatin A respectively. […] The low MEF expression in Hela cell is considered to be attributed to any other unknown mechanism. This is also backed up by the report that Hela cell lacking in known methylation-dependent inhibitor MeCP2 becomes a silence methylation gene using another route including MBD2 [Ng et al., 1999].
Isogene (Nippon Gene) was used in extraction of all RNAs from culture cells. For comparison of various gene expressions of culture cells, RT-PCR was conducted. RNA PCR kit (AMV) ver. 2.1 (TaKaRa) was used for RT-PCR. The methods by which the gene expression identified in the invention are outlined below.
A reverse transcription reaction (at 42° C. for 60 minutes, at 99° C. for 5 minutes, at 5° C. for 5 minutes) was performed using 1 μg of all RNAs extracted from A549 and other cells as templates and oligo dT primers. Thereafter, PCR (at 94° C. for 2 minutes—1 cycle; at 94° C. for 30 seconds, at 58° C. for 30 seconds, at 72° C. for 30 seconds—40 cycles) was performed using an upstream primer (5′-[…]-3,) and a downstream primer (5,-[…]-3′).

Another experiment relates to MMP-9 promoter. Put plainly: Luciferase assay using MMP-9 promoter. The class given is cell-based, human. The settings on record: 5-azacytidine (1 μM) and trichosamine A (1 μM). The procedure:
(§1) Accordingly, the present inventors further examined the function of MEF on transcription of MMP-9 and IL-8. For examining whether MEF directly suppresses transcription of MMP-9 and IL-8, the present inventors performed luciferase assay using MMP-9 and IL-8 promoters. […] In each case, the ordinate represents a relative luciferase activity, and the abscissa represents Basal, A549 cell, a case of adding 1.0 μM MEF, a case of adding 3.0 μM MEF, a case of adding 5.0 μM MEF and a case of adding MEF gene overexpressing cell (clone 71) from the left respectively. In A549 cell, a high luciferase activity of MMP-9 and IL-8 promoters was observed (FIG. 20). […] In each graph, the ordinate represents a relative luciferase activity, and the abscissa represents Basal, A549 cell, a case of adding Est-2 and a case of adding anti-Est-2 from the left respectively.
(§2) The finding of MMP-9 activation with ETS-2 is also backed up by the study on target deletion of Ets-2 using mice [Yamamoto, 1998]. Since MEF is, unlike PU-1, free from a repressor region [Kihara-Negishi, 2001] and interacts with HDAC or Sin3A having a deacetylase activity, the present inventors next assumed that MEF is a competitor with ETS-2 in ets binding sites of these promoters. […]

A further experiment has as its system IL-8 promoter. Briefly: Luciferase assay using IL-8 promoter. The class given is cell-based, human. Conditions: 5-azacytidine (1 μM) and trichosamine A (1 μM). The procedure: as §1, §2
Experiment [1] has as its system human umbilical vein endothelial cells (HUVECs). Put plainly: Migration of HUVECs toward serum-free culture supernatant. The class given is cell-based. Conditions: 8-μm filter, 24 hours; A549 supernatant accelerated migration; bFGF positive control. The text has this: Successively, it was further examined whether MEF gene overexpression of A549 cells influences metastasis of vessel endothelial cells. […] Human umbilical vein endothelial cells (HUVECs) were inoculated in an upper chamber, and cells migrating in a medium of a lower chamber were observed through a 8-μm filter.
The results are shown in FIG. 17 by photographs in place of drawings. […] In FIG. 18, the ordinate represents a (%) migration activity relative to a non-treated case, and the abscissa represents a non-treated case, a case of bFGF, a case of A549 cell and a case of MEF gene overexpressing cell (clone 71) from the left side respectively.
[…] of a cell suspension containing HUVECs at a concentration of 2.5×10^5 cells/ml was added to an upper layer of a matrigel invasion chamber (BD Biocoat Matrigel) having 8-μm pores. Subsequently, 700 μl of a serum-free culture supernatant produced according to 1. of Example 10 was added to a lower layer. After 24 hours, HUVECs invaded into the lower layer of the membrane filter were stained with hematoxylin, and the number of cells was then counted under a microscope.

As to `CNC(=O)[C@H](Cc1ccccc1)NC(=O)[C@H](CC(C)C)[C@H](CSc1cccs1)C(=O)NO` [BB94], the F-actin localization result with A549 cell (MEF gene overexpression or BB94 10 μM) is listed as “localization of F-actin in the interface between cells”. For the same compound, the morphological change result in the experiment on A549 cell (MEF gene overexpression, BB94 10 μM or 5-azacytidine 10 μm) is reported as “induced typical morphological change”. In addition, the invasion activity entry with A549 cells is recorded as “inhibitory effect”.

Consider `CC(/C=C/C(=O)NO)=C\[C@@H](C)C(=O)c1ccc(N(C)C)cc1` [tricostatin A], for which the MEF expression entry in the experiment with MEF expression (A549 cell, combined use of 5-azacytidine (1 μM) and tricostatin A (300 μM)) is “clearly increased the MEF expression”; in the experiment on MEF expression (A549 cell, single use of the reagent), “increased the MEF expression only slightly”; in the experiment on MEF expression (Caco-2 cell, 5-azacytidine and tricostatin A) it was “same effect was observed”; with MEF expression (HEK293 cell, 5-azacytidine and tricostatin A) it was “not in HEK293 and Hela cells”; in the experiment on MEF expression (Hela cell, 5-azacytidine and tricostatin A), “not in HEK293 and Hela cells”. In addition, the MMP-9 promoter activity entry in the experiment with MMP-9 promoter is on record as “inhibited”. In the experiment on IL-8 promoter, the IL-8 promoter activity result was “inhibited”.

Consider “bFGF: basic FGF, positive control for HUVEC migration”, for which, in experiment [1], the “migration of HUVECs” value was “increased migration of HUVECs”.
